# Assay results reported in patent US6241963A, “Dopamine and serotonin transporter ligands and imaging agents” (priority 1996, dated 2001).
# Where “and” joins values, the source holds several entries; their conditions need not be identical. Equal values may be shown once. Entries after “also recorded” stand apart in the source; their conditions may differ. Read-outs that look alike come from different tables or passages of the source.
# Experiments:
# dopamine transporters [1] = molecular target: T1, dopamine transporters (Rattus norvegicus, UniProt P23977); format: in vivo, Male Sprague-Dawley rats; details: rats, iv
# Description: For dopamine transporter imaging agents, the target area of the brain is the striatum, where dopamine transporters are highly concentrated. The cerebellum region is suitable for use as the background region, because it has no dopamine transporters. The specific uptake is measured by the ratio of % dose/gram of striatum divided by % dose/gram of cerebellum (ST/CB ratio)--the higher the value, the better the specific uptake, and the more promising as a dopamine transporter imaging agent.
# (§1) Regional brain distribution in rats was obtained after an injection of 1.19a, 1.19b, 1.20a, 1.20b or 1.21. Samples from different brain regions (cortex, striatum, hippocampus, and cerebellum) were dissected, weighed and counted, and the percentage dose per gram of sample was calculated by comparing the sample counts with the count of the diluted initial dose. The uptake ratio of each region was obtained by dividing the percentage dose per gram of that region by that of the cerebellum. For blocking studies, rats were injected with either β-CIT or haloperidol (iv, 1 mg/Kg) 5 min prior to injection of 1.19a. The rats were dissected and brain tissue samples were counted as described above. The specific uptake of the compound was expressed as ratio of ST/CB (% dose/g of striatum divided by the same of cerebellum).
# The major criteria for determining the potential usefulness of in vivo dopamine transporter imaging agents are based on an animal biodistribution study. In this case, rats were used as an animal model. After an intravenous injection of the Tc-99m labeled compounds, the values of initial brain uptake (% dose/whole organ) at 2 minutes post intravenous injection are used to measure the ability to penetrate the intact blood-brain barrier. Compounds displaying higher brain uptake are the better agents (minimum requirement >0.1% dose in brain). The second criteria is the specific uptake in the striatum region of the brain, where dopamine transporters are located. The uptake value (% dose/gram) of the striatum (ST) is divided by the background area, cerebellum (CB; essentially devoid of dopamine transporter); the ratio of ST/CB is an indicator for specific uptake (minimum requirement for ST/CB >1.5). Five structurally similar tropane derivatives were examined in this biological study. (Tables 1.1 to 1.4).
# as §1, with “3.24 to 3.34.” for “1.19a, 1.19b, 1.20a, 1.20b or 1.21.”, “3.25.” for “1.19a.”, “above.” for “above. The specific uptake of the compound was expressed as ratio of ST/CB (% dose/g of striatum divided by the same of cerebellum).”
# dopamine transporters [2] = test: SPECT imaging in a baboon, co-registered with MRI; format: in vivo; details: 60-90 min post iv injection of 9 mCi
# Description: A baboon (~15 kg) was the subject of a SPECT imaging study. Prior to imaging, the animal was fasted, immobilized with ketamine (10-20 mg/kg, i.m.) and xylazine (2-3 mg/kg, i.m.), intubated and maintained on a 1.5-2.0% isofluorane/98.5% oxygen mixture (flow rate of 200-500 cc/min). […] Body temperature was maintained using a hot water circulating heating pad and was monitored with a rectal thermometer. The animal's head was immobilized using a vacuum-packed bean-bag device that hardens upon evacuation when molded around the head. No-carrier-added [^99m Tc]TRODAT-1 (1.19a; 9 mCi) was administered as an intravenous bolus in the saphenous vein of the baboon. Immediately after injection, sequential 5 minute per frame dynamic SPECT scans were acquired on a triple-headed Picker Prism 3000 camera (FWHM: 7 mm) equipped with fan beam collimators for 2 hours. The acquisition parameters were a 20% energy window at 140 KeV, 120 projection angles over 360 degrees, a 128×128 matrix, and a zoom factor of 1.78 in a slice thickness of 2 mm. The projection data was reconstructed with a count dependent 3-D Wiener filter. Chang's first order correction method was used to compensate for attenuation. Magnetic resonance images (MRI) of the baboon brain were acquired with a 1.5 Tesla machine (GE Medical Systems, Milwaukee, Wis.). […]
# dopamine transporters [3] = molecular target: T1, dopamine transporters; test: In vitro autoradiography of rat brain sections; format: binding, Male Sprague-Dawley rats; details: rat brain coronal sections
# Description: Male Sprague-Dawley rats ([…]) were sacrificed by decapitation, and the brains were removed, placed in OTC embedding medium (Miles Laboratory, Elkhart, Ind.) frozen in powdered dry ice. After equilibration to -15° C., 20 μm coronal sections were sliced on a cryostat (Hacker Instruments, Fairfield, N.J.), thaw mounted onto gelatin-coated slides, desiccated at 4° C. for 3 hours and kept at -70° C. until use. Prior to the experiment, the slides were dried at room temperature and preincubated for 30 minutes in buffer containing 50 mM Tris-HCl (pH 7.4, 120 mM NaCl). The slides were then incubated for 2 hours in preincubation buffer and the [^99m Tc] compound 3.25 (385,000 cpm/200 μL) in a coplan jar, washed for 1 hour in cold Tris buffer, with one change of buffer, dipped in ice-cold water to remove buffer salts and allowed to dry at room temperature. Nonspecific binding was determined in the presence of 1 μM IPT. These slides were simultaneously exposed to DuPont x-ray film in an autoradiographic cassette for 18 hours. The exposed film was developed with a Kodak automatic film processor.
# [4] = rat, cited from earlier work
# T1 sequence (P23977 whole entry): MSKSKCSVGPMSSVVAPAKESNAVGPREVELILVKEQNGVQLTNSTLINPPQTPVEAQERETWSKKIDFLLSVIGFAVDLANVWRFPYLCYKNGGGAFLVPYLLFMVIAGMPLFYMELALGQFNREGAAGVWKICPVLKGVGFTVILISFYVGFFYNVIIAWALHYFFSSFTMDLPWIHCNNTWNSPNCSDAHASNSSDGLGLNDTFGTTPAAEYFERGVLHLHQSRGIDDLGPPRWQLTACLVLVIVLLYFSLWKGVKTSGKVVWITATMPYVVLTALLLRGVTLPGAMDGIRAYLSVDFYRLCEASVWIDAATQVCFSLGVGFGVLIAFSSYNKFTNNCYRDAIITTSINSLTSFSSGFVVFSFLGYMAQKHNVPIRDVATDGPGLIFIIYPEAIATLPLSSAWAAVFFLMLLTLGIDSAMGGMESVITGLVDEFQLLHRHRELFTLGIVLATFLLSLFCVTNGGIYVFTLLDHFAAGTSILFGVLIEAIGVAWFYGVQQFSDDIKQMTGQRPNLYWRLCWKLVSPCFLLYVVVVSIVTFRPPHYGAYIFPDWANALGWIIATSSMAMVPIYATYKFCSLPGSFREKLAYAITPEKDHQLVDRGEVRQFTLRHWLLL
smiles,measurement,setting,value
CN1[C@H]2CC[C@@H]1[C@@H](C[N+]13CC[S][99Tc-]14(=[O])[S]CC[N]4CC3)[C@@H](c1ccc(Cl)cc1)C2 (stereo partly shown) [Compound 1.19a],"ST/CB ratio, 2 min",dopamine transporters [1]; 2 min,0.93 ± 0.23
same,"ST/CB ratio, 30 min",dopamine transporters [1]; 30 min,2.04 ± 0.18
same,"ST/CB ratio, 30 min","dopamine transporters [1]; 30 min, listed as TRODAT-1",2.0
same,"ST/CB ratio, 60 min",dopamine transporters [1]; 60 min,2.66 and 2.66 ± 0.01
same,"ST/CB ratio, 120 min",dopamine transporters [1]; 120 min,3.90 ± 1.33
same,"ST/CB ratio, 240 min (4 hours)",dopamine transporters [1]; 240 min,4.07
same,"ST/CB ratio, 360 min",dopamine transporters [1]; 360 min,2.97 ± 0.14
same,SPECT localization in brain,dopamine transporters [2],excellent consistence with the expected localization of this agent in caudate and putamen areas; also recorded: A high accumulation
"COC(=O)C1C(c2ccc(Cl)cc2)CC2CCC1N2CC[S][99Tc-]12(=[O])[S]CC[N+]1(C)CC[S]2 [Compound 3.25, [^99m Tc] technetium, [methyl 3-(4-chlorophenyl)-8-(2-mercaptoethyl)-8-azabicyclo [3.2.1]octane-2-carboxylato-S][[2,2'-(methylimino)bis[ethanethiolato]](2-)-N,S,S']oxo]","Cerebellum, 2 min",dopamine transporters [1]; 2 min,0.066 ± 0.017 % dose/g
same,"Cortex, 2 min",dopamine transporters [1]; 2 min,0.060 ± 0.009 % dose/g
same,"Hippocampus, 2 min",dopamine transporters [1]; 2 min,0.046 ± 0.005 % dose/g
same,"ST/CB ratio, 2 min",dopamine transporters [1]; 2 min,0.82
same,"Striatum, 2 min",dopamine transporters [1]; 2 min,0.054 ± 0.010 % dose/g
same,"Cerebellum, 30 min",dopamine transporters [1]; 30 min,0.027 ± 0.006 % dose/g
same,"Cortex, 30 min",dopamine transporters [1]; 30 min,0.038 ± 0.007 % dose/g
same,"Hippocampus, 30 min",dopamine transporters [1]; 30 min,0.028 ± 0.008 % dose/g
same,"ST/CB ratio, 30 min",dopamine transporters [1]; 30 min,2.2
same,"Striatum, 30 min",dopamine transporters [1]; 30 min,0.060 ± 0.011 % dose/g
same,"Cerebellum, 60 min",dopamine transporters [1]; 60 min,0.018 ± 0.001 % dose/g
same,"Cortex, 60 min",dopamine transporters [1]; 60 min,0.026 ± 0.002 % dose/g
same,"Hippocampus, 60 min",dopamine transporters [1]; 60 min,0.025 ± 0.003 % dose/g
same,"ST/CB ratio, 60 min",dopamine transporters [1]; 60 min,3.5
same,"Striatum, 60 min",dopamine transporters [1]; 60 min,0.063 ± 0.001 % dose/g
same,"Cerebellum, 120 min",dopamine transporters [1]; 120 min,0.011 % dose/g
same,"Cortex, 120 min",dopamine transporters [1]; 120 min,0.015 % dose/g
same,"Hippocampus, 120 min",dopamine transporters [1]; 120 min,0.011 % dose/g
same,"ST/CB ratio, 120 min",dopamine transporters [1]; 120 min,2.8
same,"Striatum, 120 min",dopamine transporters [1]; 120 min,0.031 % dose/g
same,Autoradiographic regional labeling,dopamine transporters [3],"elevated labeling in striatum, major islands of Calleja and olfactory tubercle regions; also recorded: intense labeling in caudate putamen and olfactory tubercle; also recorded: localized in caudate putamen and olfactory tubercle"
same,Initial brain uptake at 2 minutes,[4]; 2 min post iv injection (Meegalla 1995),0.1%
same,ST/CB ratio at 60 minutes,[4]; 60 min after iv injection (Meegalla 1995),3.50
